Drawing on PubChem BioAssay (NCI), this text covers TGI for ten compounds.

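Grown in 96-well plates, cells were treated for 48 hours with each compound at five concentrations. Insufficient inhibition: endpoint recorded as highest concentration tested. TGI is the concentration that stops growth completely.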

Some test systems named below: NCI-H460 lung; SN12C renal; UACC-62 melanoma; NCI/ADR-RES ovarian; CAKI-1 renal; MDA-MB-435; RPMI-8226 leukemia; BT-549 breast; SR leukemia; SK-MEL-5 melanoma; EKVX NSCLC; OVCAR-5 ovarian; HT29 colon.
Assay in all cases: DTP human tumour cell line panel, 48 h

As usually defined, the TGI is the concentration giving total growth inhibition. For `OCCCCCNc1c2ccccc2nc2ccccc12`, the TGI was 3.5 µM with NCI-H460 lung; 9.34 µM in the assay on SN12C renal; 3.92 µM in the assay with UACC-62 melanoma; over 57.2 µM in the assay with NCI/ADR-RES ovarian; 8.31 µM in the assay on CAKI-1 renal; 8.5 µM in the assay on MDA-MB-435. For the same compound, the TGI in the assay with RPMI-8226 leukemia is 33.2 µM; in the assay with BT-549 breast, 25.3 µM; in the assay on SR leukemia, over 23.2 µM; with SK-MEL-5 melanoma it was 3.95 µM; in the assay on EKVX NSCLC it was 17.5 µM; in the assay on OVCAR-5 ovarian it was 10.2 µM. Further, in the assay with HT29 colon, the total growth inhibition concentration (TGI) is 20.7 µM.
On to `CN(CCC#N)c1ccc(/C=C2\SC(=S)NC2=O)cc1`, for which the TGI with NCI-H460 lung is over 100 µM; with SN12C renal it was over 100 µM; in the assay with UACC-62 melanoma it was 47.3 µM; with NCI/ADR-RES ovarian it was over 100 µM; in the assay with CAKI-1 renal it was over 100 µM; in the assay on MDA-MB-435 it was over 100 µM. In addition, the TGI in the assay with RPMI-8226 leukemia is over 100 µM; in the assay with BT-549 breast it was 79.2 µM; in the assay on SR leukemia, over 100 µM; with SK-MEL-5 melanoma, over 100 µM; with EKVX NSCLC, over 100 µM; in the assay with OVCAR-5 ovarian, over 100 µM. Moreover, the TGI in the assay with HT29 colon is over 100 µM.
As for `CCOP(=O)(OCC)/C(C#N)=C/c1cnc(-c2ccccc2)[nH]1`, the TGI in the assay with NCI-H460 lung was over 100 µM; in the assay on SN12C renal, over 100 µM; in the assay with UACC-62 melanoma, over 100 µM; in the assay with NCI/ADR-RES ovarian it was over 100 µM; with CAKI-1 renal, over 100 µM; in the assay with MDA-MB-435, 80.9 µM. The TGI in the assay with RPMI-8226 leukemia, in the assay with BT-549 breast, with SR leukemia, in the assay on SK-MEL-5 melanoma, with EKVX NSCLC and with OVCAR-5 ovarian was over 100 µM in each case. Moreover, in the assay on HT29 colon, the TGI was over 100 µM.
With `COc1ccc(N2C(=O)C3c4[nH]c5ccc(OCc6ccccc6)cc5c4C4CCC(C(C)(C)C)CC4C3C2=O)cc1` (centres undefined), the TGI with NCI-H460 lung, in the assay on SN12C renal, in the assay on UACC-62 melanoma, in the assay on NCI/ADR-RES ovarian, with CAKI-1 renal and with MDA-MB-435 was over 100 µM throughout. In addition, the TGI in the assay with RPMI-8226 leukemia, with BT-549 breast, with SR leukemia, in the assay on SK-MEL-5 melanoma, with EKVX NSCLC and in the assay with OVCAR-5 ovarian was over 100 µM throughout. In addition, the TGI with HT29 colon was over 100 µM.
On to `C=C(C)C12CC(COC(=O)c3ccccc3)C34OC5(OC1C3C1OC1(CO)C(O)C1(O)C(OC(=O)c3ccccc3)C(C)C(C(C)CCCCCCC5O)C14)O2` (centres undefined), for which the TGI in the assay on NCI-H460 lung is over 100 µM; with SN12C renal, over 100 µM; in the assay on UACC-62 melanoma, over 100 µM; with NCI/ADR-RES ovarian, over 100 µM; in the assay with CAKI-1 renal it was over 100 µM; in the assay with MDA-MB-435, over 79.3 µM. Further, the TGI was over 75.8 µM in the assay on RPMI-8226 leukemia; over 100 µM in the assay with BT-549 breast; over 31.6 µM in the assay on SR leukemia; over 100 µM in the assay with SK-MEL-5 melanoma; over 100 µM with EKVX NSCLC; over 100 µM with OVCAR-5 ovarian. In the assay on HT29 colon, this compound yielded a TGI of 54.7 µM.
Regarding `OC1C2[C@@H](O)CCCN2C[C@@H](O)[C@H]1O` (some centres undefined), the TGI in the assay on NCI-H460 lung, with SN12C renal, in the assay with UACC-62 melanoma, with NCI/ADR-RES ovarian, in the assay on CAKI-1 renal and in the assay with MDA-MB-435 was over 100 µM in each case. The TGI with RPMI-8226 leukemia, with BT-549 breast, with SR leukemia, with SK-MEL-5 melanoma, in the assay on EKVX NSCLC and in the assay on OVCAR-5 ovarian was over 100 µM in each case. Besides, in the assay on HT29 colon, the TGI is over 100 µM.
With `CCN(CC)CCc1c2c(nc3ccccc13)C(=O)c1cccnc1C2=O`, the TGI is 5.92 µM in the assay on SN12C renal; 2.97 µM in the assay on UACC-62 melanoma; over 100 µM with NCI/ADR-RES ovarian; 4.9 µM in the assay on CAKI-1 renal; 4.99 µM in the assay on MDA-MB-435; 6.43 µM in the assay on RPMI-8226 leukemia. Besides, the TGI is 7.56 µM with BT-549 breast; 0.993 µM with SR leukemia; 1.34 µM with SK-MEL-5 melanoma; 13.7 µM in the assay with EKVX NSCLC; 25.4 µM in the assay with OVCAR-5 ovarian; 11.1 µM in the assay with HT29 colon.
On to `O=C(CCCCCCCCC(=O)NN1C(=O)/C(=C\c2ccc(O)c(O)c2)SC1c1ccc(Cl)cc1)NN1C(=O)/C(=C\c2ccc(O)c(O)c2)SC1c1ccc(Cl)cc1` (centres undefined), for which the TGI in the assay on NCI-H460 lung is over 100 µM; with SN12C renal, over 100 µM; in the assay on UACC-62 melanoma, 60.2 µM; with NCI/ADR-RES ovarian, over 100 µM; in the assay on CAKI-1 renal it was over 88.1 µM; with MDA-MB-435 it was over 100 µM. In addition, the TGI in the assay with RPMI-8226 leukemia was over 31.6 µM; in the assay on BT-549 breast it was over 100 µM; in the assay on SR leukemia, 28.3 µM; with SK-MEL-5 melanoma, over 100 µM; with EKVX NSCLC, over 100 µM; in the assay with OVCAR-5 ovarian, over 100 µM. Besides, the TGI in the assay on HT29 colon was over 100 µM.
As to `COc1cccc(-c2cc(=O)c3ccccc3o2)c1N`, the TGI with NCI-H460 lung, in the assay on SN12C renal, in the assay on UACC-62 melanoma, with NCI/ADR-RES ovarian, in the assay on CAKI-1 renal and in the assay with MDA-MB-435 was over 100 µM in each case. The TGI in the assay with RPMI-8226 leukemia, in the assay with BT-549 breast, in the assay with SR leukemia, in the assay with SK-MEL-5 melanoma, in the assay on EKVX NSCLC and in the assay on OVCAR-5 ovarian was over 100 µM each time. The compound also registered a TGI in the assay with HT29 colon of over 100 µM.
For `Cc1nc2c(sc(=S)n2-c2ccccc2)c2nc3ncccc3n12`, the total growth inhibition concentration (TGI) in the assay with NCI-H460 lung, with SN12C renal, with UACC-62 melanoma, with NCI/ADR-RES ovarian, with CAKI-1 renal and with MDA-MB-435 was over 100 µM in each case. Besides, the TGI in the assay with RPMI-8226 leukemia, in the assay on BT-549 breast, in the assay on SR leukemia, with SK-MEL-5 melanoma, with EKVX NSCLC and in the assay with OVCAR-5 ovarian was over 100 µM in each case. The same compound yielded a TGI in the assay on HT29 colon of over 100 µM.
